Test results taken from patent US20070172439A1, “Method of chemiluminescence-utilizing makeup and beautification, luminant for skin irradiation beautification and makeup/beautification equipment” (priority 2004, published 2007).

Columns and labels:
mouse melanoma(B16 cell) [1] = assay: Melanin synthesis rate per unit cell (Abs 475/260 nm); assay type: cell-based; conditions: VC 1 mM addition (positive control), control = 100
Text: (§1) • Cell: mouse melanoma(B16 cell) • Chemical luminescentbody: Normal type • Blue fluorescent light, orange fluorescent light, red fluorescent light, green fluorescent light, and yellow fluorescent light • High intensity type • Orange fluorescent light, red fluorescent light, and green fluorescent light (Produced by OmniGlow Japan Co., Ltd.) Assay: • 1. Seeded B16 cell to 24 well plate with […], MEM·10% S(+)·glucosamine culture medium. n=8 • 2. After culturing 5 days, it was transferred to MEM·10% S(+)·theophyline culture medium. • 3. Exposed to fluorescent light by placing the chemical luminescent body in contact with the plate for 4 hr. in the case of normal type and for 30 min. in the case of high intensity type. The control was under no exposure to fluorescent light and the positive control was in the 1 mMVC (Ascorbic acid) addition system. • 4. The cell was recovered three days after the start of exposure, dissolved into 0.1% DS normal saline solution, and then the optical density was measured at 260 nm (index of the amount of cell) and at 475 nm (index of the amount of melanin), and then the cell proliferation rate and the melanin synthesis rate per unit cell was calculated. • The B16 cell proliferation rate is shown in Table 4 and FIG. 7, and the melanin synthesis rate per unit cell is shown in Table 5 and FIG. 8. […]

mouse melanoma(B16 cell) [2] = assay: B16 cell proliferation rate (Abs 260 nm); assay type: cell-based; conditions: VC 1 mM addition (positive control); control = 100
Text: as §1

Fibroblast(NHF) [3] = assay: Collagen synthesis rate, PIP kit per MTT (Example 5); assay type: cell-based, human; conditions: PMG 100 mM (positive control); per unit cell; control = 100
Method: (§2) • Cell:Fibroblast(NHF) • Chemical luminescence body (produced by OmniGlow Japan Co., Ltd.) • Normal type red (red fluorescent light) • High intensity orange (orange fluorescent light) • Collagen measurement kit: The amount of propeptide at the end of I type collagen C (PIP) is measured by Takara PIP kit. Assay: • (1)NHF is seeded at 2.0×10^4 to 24 well plate with DMEM·10% S(+). • (2) After confluent state is observed by culturing 5 days, it was transferred to non-color and non-blood-serum DMEM. • (3) Fluorescent light is allowed to irradiate (30 min.) by placing the chemical luminescent body in direct contact with 24 well plate. 100 mM PMG(phosphoric acid-L-magnesium ascorbate) addition system was prepared as the positive control. • (4) After 24 hours from the start of irradiation, the upper layer of the medium is recovered. • The amount of propeptide at the end of I type collagen C (PIP) is measured by Tatara PIP kit and then the calorimetric determination of cell proliferation is made by using MTT assay at observation wavelength of 540 nm and at reference wavelength of 655 nm. The cell proliferation rate is calculated by the formula below by setting the control of non-treated group as 100%. […]

[4] = test system: Normal human skin fibroblast (NHF); assay: Cell proliferation, MTT assay (Example 1); assay type: cell-based; conditions: fluorescence 4 hrs, 100 mM PMG as positive control, vs untreated control
Method: The test was performed in the procedure described below: • 1. Cell: Normal human skin fibroblast (NHF) • 2. Chemical fluorescent body: CYALUME Light shape blue, orange and red Seller: OmniGlow Japan Co., Ltd. • 3. Assay: • (1) Seeded NHF to 24 well plate with 2.0×10^4 cells/well, DMEM·10% S(+) • (2) After confluent state is observed by culturing 5 days, it was transferred to non-color and non-blood-serum DMEM. • (3) Exposed to fluorescence (4 hrs.). 100 mM PMG additive system was used as the positive control. • (4) Observed the appearance of the cell (×40) • (5) The quantitative measurement of cell proliferation was made by using MTT assay and by means of colorimetric test with wavelengths of 540 nm for measurement and 655 nm for control. The cell proliferation rate was calculated by using the formula described below, setting the untreated control as 100%. • 4. Calculation formula Cell proliferation rate=([Sample addition OD(540 nm)]−[Sample addition OD(655 nm)])/([Control OD(540 nm)]−[Control OD(655 nm)])×100

Fibroblast(NHF) [5] = assay: Fibroblast proliferation, MTT assay (Example 5); assay type: cell-based, human; conditions: PMG 100 mM (positive control); 24 hours
Method: as §2

Row | Compound | Melanin synthesis rate (%) (mouse melanoma(B16 cell) [1]) | B16 cell proliferation rate (%) (mouse melanoma(B16 cell) [2]) | Collagen synthesis rate (%) (Fibroblast(NHF) [3]) | cell proliferation [4] | Fibroblast proliferation rate (%) (Fibroblast(NHF) [5])
1 | O=C1O[C@H]([C@@H](O)CO)C(O)=C1O [VC, Ascorbic acid] | 65.28% | 21.42% |  |  | 
2 | phosphoric acid-L-magnesium ascorbate [PMG] |  |  | 127.6% | significantly promoted | 138.2%
